Test results reported in patent US20170112861A1, “DRUG DELIVERY ENHANCER COMPRISING SUBSTANCE FOR ACTIVATING LYSOPHOSPHOLIPID RECEPTORS” (Osaka University, priority 2014, published 2017).

Columns and labels:
[1] = test system: Mouse colon cancer colon 26 cells; experiment: Combined administration of LPA and oxaliplatin, tumor growth in colon 26 cell tumor-bearing mice; format: in vivo; details: colon 26 tumors in BALB/c mice; LPA 3 mg/kg i.p.; oxaliplatin 1.5 mg/kg i.p.
Procedure: LLC cells were subcutaneously inoculated into C57BL/6 NCrSlc mice aged 8 weeks in the same manner as in Example 1. An LPA administration solution was prepared in the same manner as in Example 1. The anticancer drug used was 5-FU (Kyowa Hakko Kirin Co., Ltd.). The 5-FU was prepared as a solution in physiological saline (Otsuka Pharmaceutical Co., Ltd.). On day 7 post-inoculation of LLC cells, mice with a tumor volume of 30 to 50 mm^3 were selected and subjected to the test. The mice were divided into four groups: control group, 5-FU group, LPA group and 5-FU/LPA group (n=3). LPA (3 mg/kg in 100 μL PBS) or 5-FU (100 mg/kg in 100 μL PBS) or PBS (100 μL) was administered intraperitoneally. To 5-FU/LPA group, both LPA and 5-FU were administered intraperitoneally. LPA and PBS were administered once daily for consecutive seven days. 5-FU was administered twice in total, once a week for two weeks (on days 7 and 14 post-inoculation). The tumor size was measured over time after start of administration. The tumor volume was calculated by the formula: volume=length×width×height×0.5. Mice at 2 weeks after start of administration were photographed with a digital camera under anesthesia with pentobarbital. The tumors were harvested and photographed with a digital camera.
Mouse colon cancer colon 26 cells were used. […]

LLC cell tumors = experiment: Doxorubicin delivery from tumor blood vessels to tumor tissues after LPA administration; format: in vivo; details: LLC tumor-bearing mice, LPA 3 mg/kg i.p., doxorubicin 1.5 mg/kg i.v. 24 hours later, tumors harvested after 20 minutes
Procedure: LLC cells were subcutaneously inoculated into C57BL/6 NCrSlc mice aged 8 weeks (females, SLC, Inc.) in the same manner as in Example 1. An LPA administration solution was prepared in the same manner as in Example 1. On day 11 post-inoculation of LLC cells, mice with a tumor volume of 100 to 120 mm^3 were selected. The mice were divided into two groups: control group and LPA group (n=3). LPA (3 mg/kg in 100 μL PBS) or PBS (100 μL) was administered intraperitoneally. At 24 hours after LPA or PBS administration, doxorubicin (doxorubicin hydrochloride, Nippon Kayaku Co., Ltd.) was administered to the tail vein of the mice at a dose of 1.5 mg/kg under anesthesia with pentobarbital. The doxorubicin was prepared as a solution by dissolving and diluting the doxorubicin hydrochloride in physiological saline (Otsuka Pharmaceutical Co., Ltd.) to a concentration of 1.5 mg/kg and homogenizing the solution with an ultrasonic cleaner for 1 minute before administration. Doxorubicin is an autofluorescent anticancer drug that can be detected at an excitation wavelength of 480 nm and a measurement wavelength of 575 nm. At 20 minutes after administration of doxorubicin, the tumors were harvested from the mice, and the tumor specimens were prepared in the same manner as in Example 1 except that the thickness of the sections was 20 μm. […]

Substance: lysophosphatidic acid [LPA]
- tumor growth (tumor volume) [1]: some inhibitory effects on tumor growth as compared with the control, up to day 17 post-inoculation
- delivery of doxorubicin from blood vessels to tumor (LLC cell tumors): delivery of doxorubicin from the blood vessels to tumors in the deep lobe was observed
